Reference: US20230088717A1, “NEW IMMUNOSTIMULATORS AND USE THEREOF IN IMMUNOTHERAPY” (NANTES UNIVERSITÉ, priority 2020, published 2023)
Read-outs that look alike come from different tables or passages of the source.

Legend:
iNKT cells [1] = assay: iNKT cell activation: cytokine secretion (ELISA) after co-culture with glycolipid-loaded CD1d-transfected HEK293 or HeLa cells; format: cell-based, human; conditions: for LogEC50 IFN-γ / LogEC50 IL-2 / LogEC50 IL-13 / EC50: 6 h co-culture; for Delta LogEC50 IFN-γ / Delta LogEC50 IL-2 / Delta LogEC50 IL-13: KRN7000 vs 6-PEG3-NH2-GalCer; for EC50: Homo sapiens, iNKT, 6 h
Method: (§1) Classically, CD1d expressing cells are incubated overnight in presence or in the absence of the compound to be assessed, allowing loading on the CD1d molecule. Then, CD1d cells are co-incubated with iNKTs. Six hours of co-culture are sufficient to be able to detect most of the cytokine release (such as IFN-γ, IL-13 and/or IL-2) in the supernatant. Various time of incubation, up to 48H, can be performed depending of the kinetic of some late cytokines (such as IL-10). The quantity or concentration of at least one cytokine is thus measured in the supernatant after an incubation time of from 6 hours to 48 hours. An increased quantity or concentration of at least one cytokine in the presence of the assessed compound by comparison to in its absence means that said compound is a iKNT stimulator.
(§2) To analyse ability of 6-PEG3-NHR-GalCer 2 and 6-Mal-PEGn-GalCer 3 to activate iNKTs, several types of presenting cells were used, such as HEK293 or HeLa cells transfected to express CD1d molecule on their membrane. Non-transfected cells were also used as negative control “at first glance” since presentation of glycolipids to iNKT cells is known to be dependent on CD1d.
(§3) These cells were then used as antigen presenting cells (APC) to compare the iNKT cell activation potency of the canonical α-GalCer (KRN7000) ligand to that of the analogue 6″-modified with an aminoPEG linking arm 6-PEG3-NH2-GalCer 2a. APC were loaded with glycolipids after co-incubation at various concentrations overnight. Next day, cells were washed and co-cultured with iNKTs (2 APC for 1 iNKT). After 6 hours, supernatants were collected, and cytokines secretions (IFN-γ and IL-2 for Th1 panel and IL-13 for Th2 panel) was measured by ELISA (FIGS. 2 and 3)
(§4) 6-PEG3-NHR-GalCer analogues of 6-PEG3-NH2-GalCer 2a were evaluated on transfected CD1d and non-CD1d Hela and HEK293 cells for secretion of INF-γ and IL13 stimulation (see FIGS. 10 and 11).

iNKT cells [2] = assay: iNKT cell activation: cytokine secretion after co-culture with glycolipid-loaded non-transfected (non-CD1d) tumor cells; format: cell-based, human; conditions: for secretion of cytokines: non-CD1d Hela and HEK293 cells
Method: as §1, §2, §3
To confirm this discovery, various other colon, lung, embryonic kidney, cervical cancer cells lines were screened by RT-PCR to define those that express small levels of CD1d and to confirm their ability to self-present the new potent iNKT agonist (see Table 6).
as §4

iNKT cells in PBMC = assay: iNKT phenotyping: expansion of iNKT cells in PBMC, CD8+/CD4+; format: cell-based, human; conditions: PBMC cultured ten days with high dose of glycolipid (FIG. 8)
Method: Comparative study was run to establish either a CD4 or CD8 orientation of the immune response can be induced using 6-PEG3-NH2-GalCer 2a vs KRN7000 (see FIG. 8). PBMC were cultured in presence of an high dose of KRN or 6-PEG3-NH2-GalCer 2a, after ten days, phenotype of iNKTs was analysed by Flow Cytometry.

CD1d = molecular target: T1, CD1d (Homo sapiens, UniProt P15813); assay: CD1d-dependency of iNKT activation: cytokine secretion in presence of anti-CD1d antibody; format: cell-based
T1 construct: endogenous in cells; host or cells: HEK293 (non-transfected) and HEK293-CD1d (transfected to express CD1d)
T1 sequence (P15813 20-335): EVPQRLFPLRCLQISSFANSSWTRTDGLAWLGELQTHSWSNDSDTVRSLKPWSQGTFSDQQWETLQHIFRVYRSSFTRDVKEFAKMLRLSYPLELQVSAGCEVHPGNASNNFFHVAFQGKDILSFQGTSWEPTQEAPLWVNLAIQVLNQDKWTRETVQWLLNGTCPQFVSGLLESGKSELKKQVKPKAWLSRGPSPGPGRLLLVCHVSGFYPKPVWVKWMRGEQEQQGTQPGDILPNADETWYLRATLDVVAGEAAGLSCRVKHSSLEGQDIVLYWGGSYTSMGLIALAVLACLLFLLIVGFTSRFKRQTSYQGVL
T1 sequence (P61769 21-119 partner): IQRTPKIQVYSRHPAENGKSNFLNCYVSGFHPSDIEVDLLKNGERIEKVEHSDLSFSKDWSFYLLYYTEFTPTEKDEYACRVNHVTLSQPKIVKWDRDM
Method: It was then checked whether iNKT cells activation might be provided by a very low expression of CD1d on the proper non-CD1d tumor cells that cannot be detected by flow cytometry. To this aim, the same activation experiments were performed but in presence of an anti-CD1d antibody. HEK293 cells and HEK293-CD1d were loaded with 6-PEG3-NH2-GalCer a2 as described previously. Before co-culture with iNKTs cells, loaded presenting cells were co-incubated with the anti-CD1d antibody for 1 hours, iNKTs were added directly in suspension and co-cultured 6 hours before cytokine analysis in supernatant (ELISA). If activation signal was provided by presentation of the modified glycolipid through CD1d, it was expected to observe a blockage, or at least a decrease, of cytokine secretion after blocking the signal with the anti-CD1d antibody.

HeLa-CD1d cells = assay: Cytotoxicity induced by iNKTs on HeLa-CD1d cells (flow cytometry); format: cell-based; conditions: HeLa CD1d transfected cells, 24 hours co-culture (FIG. 7)
Method: Moreover, 6-PEG3-NH2-GalCer 2a is not only one of a strongest activator of iNKTs cells known for cytokine secretions, but that he is also able to induce a better iNKT cytotoxicity effect than KRN7000. iNKT were co-cultured with HeLa CD1 d transfected cells for 24 hours in presence of various concentration of glycolipids, then, mortality of target HeLa-CD1d cells was analysed by Flow Cytometry.

HeLa-CD1d spheroid = assay: Cytotoxicity induced by iNKTs on HeLa-CD1d 3D spheroid model; format: cell-based; conditions: 72 hours, preliminary data (FIG. 9B)
[3] = HEK293 (embryonic kidney), non transfected, as presenting cells
[4] = HeLa (cervix), non transfected, as presenting cells
[5] = Meso13 (mesotheliome) as presenting cells
[6] = Meso34 (mesotheliome) as presenting cells
[7] = Meso225 (mesotheliome) as presenting cells
[8] = SW1116 (colon) as presenting cells

SMILES: CCCCCCCCCCCCCCCCCCCCCCCCCC(=O)N[C@@H](CO[C@H]1OC(COC(=O)NCCOCCOCCOCCNC(=O)CCOCCOCCOCCOCCOCCOCCNC(=O)CCN2C(=O)C=CC2=O)[C@H](O)C(O)[C@@H]1O)[C@H](O)[C@H](O)CCCCCCCCCCCCCC (some centres unmarked) [6-Mal-PEG6-GalCer 3a]
- iNKT activation potency (cytokine release) relative to KRN7000 (iNKT cells [1]; general statement, presenting cells not specified at the place): ~10 fold

SMILES: CCCCCCCCCCCCCCCCCCCCCCCCCC(=O)N[C@@H](CO[C@H]1O[C@H](CO)[C@H](O)[C@H](O)[C@H]1O)[C@H](O)[C@H](O)CCCCCCCCCCCCCC [KRN7000, reference compound]
- LogEC50 IFN-γ (iNKT cells [1]; HEK293-CD1d presenting cells): −8.447
- LogEC50 IL-2 (iNKT cells [1]; HEK293-CD1d presenting cells): −8.680
- LogEC50 IL-13 (iNKT cells [1]; HEK293-CD1d presenting cells): −7.956
- LogEC50 IFN-γ (iNKT cells [1]; HeLa-CD1d presenting cells): −8.653
- LogEC50 IL-2 (iNKT cells [1]; HeLa-CD1d presenting cells): −9.315
- LogEC50 IL-13 (iNKT cells [1]; HeLa-CD1d presenting cells): −7.841
- IFN-γ secretion 10^−7M (iNKT cells [2]; [3]): Low
- IFN-γ secretion 10^−7M (iNKT cells [2]; [4]): Low
- IFN-γ secretion 10^−7M (iNKT cells [2]; [5]): Low
- IFN-γ secretion 10^−7M (iNKT cells [2]; [6]): Low
- IFN-γ secretion 10^−7M (iNKT cells [2]; [7]): Low
- IFN-γ secretion 10^−7M (iNKT cells [2]; [8]): Low
- secretion of cytokines (iNKT cells [2]): very poorly active or ineffective
- CD8+ / CD4+ orientation of the iNKT response (iNKT cells in PBMC): seems to not distinguish CD4+ to CD8+ cells stimulation

SMILES: CCCCCCCCCCCCCCCCCCCCCCCCCC(=O)N[C@@H](CO[C@H]1OC(COC(=O)NCCOCCOCCOCCN)[C@H](O)C(O)[C@@H]1O)[C@H](O)[C@H](O)CCCCCCCCCCCCCC (some centres unmarked) [6-PEG3-NH2-GalCer 2a]
- cytokine secretion / iNKT activation potency relative to KRN7000 (iNKT cells [1]; CD1d-transfected HEK293 / HeLa cells): ~100 fold
- Delta LogEC50 IFN-γ (iNKT cells [1]; HEK293-CD1d): 2.333
- Delta LogEC50 IL-2 (iNKT cells [1]; HEK293-CD1d): 1.55
- Delta LogEC50 IL-13 (iNKT cells [1]; HEK293-CD1d): 2.534
- Delta LogEC50 IFN-γ (iNKT cells [1]; HeLa-CD1d): 1.877
- Delta LogEC50 IL-2 (iNKT cells [1]; HeLa-CD1d): 1.495
- Delta LogEC50 IL-13 (iNKT cells [1]; HeLa-CD1d): 2.089
- EC50 (iNKT cells [1]; HEK293-CD1d presenting cells, read-out: LogEC50 IFN-γ (converted)): 0.0166 nM
- EC50 (iNKT cells [1]; HEK293-CD1d presenting cells, read-out: LogEC50 IL-2 (converted)): 0.0589 nM
- EC50 (iNKT cells [1]; HEK293-CD1d presenting cells, read-out: LogEC50 IL-13 (converted)): 0.0324 nM
- EC50 (iNKT cells [1]; HeLa-CD1d presenting cells, read-out: LogEC50 IFN-γ (converted)): 0.0295 nM
- EC50 (iNKT cells [1]; HeLa-CD1d presenting cells, read-out: LogEC50 IL-2 (converted)): 0.0155 nM
- EC50 (iNKT cells [1]; HeLa-CD1d presenting cells, read-out: LogEC50 IL-13 (converted)): 0.117 nM
- IFN-γ secretion 10^−7M (iNKT cells [2]; HCT116 (colon) as presenting cells): Low
- IFN-γ secretion 10^−7M (iNKT cells [2]; [3]): High
- IFN-γ secretion 10^−7M (iNKT cells [2]; [4]): High
- IFN-γ secretion 10^−7M (iNKT cells [2]; [5]): High
- IFN-γ secretion 10^−7M (iNKT cells [2]; [6]): High
- IFN-γ secretion 10^−7M (iNKT cells [2]; [7]): High
- IFN-γ secretion 10^−7M (iNKT cells [2]; [8]): High
- secretion of cytokines (iNKT cells [2]): significant dose response secretion of cytokines
- inhibition of cytokine (IL-2) secretion by anti-CD1d antibody (CD1d; CD1d-HEK293 positive cells (FIG. 5A)): only an incomplete inhibition
- inhibition of cytokine (IL-2) secretion by anti-CD1d antibody (CD1d; non transfected (non CD1d) HEK293 cells (FIG. 5B)): almost completely eliminated
- efficiency to induce iNKT cytotoxicity relative to KRN7000 (HeLa-CD1d cells): ≥ 10 fold
- CD8+ / CD4+ orientation of the iNKT response (iNKT cells in PBMC): induces a higher cytotoxic CD8+ response from PBMC cells than KRN7000
- induction of cell death compared with KRN7000 (HeLa-CD1d spheroid): more efficient than KRN7000 to induce cell death
